Several values for one entry are separate records, joined by “and”; a condition that tells them apart may be missing. Equal values may be shown once.
Columns and labels:
Assay in all cases: Caliper, Mobility shift assay off-chip
AKT1 (human) = AKT1 (human) (UniProt P31749)
ALK (human) = ALK (human) (UniProt Q9UM73)
BRSK2 (human) = BRSK2 (human) (UniProt Q8IWQ3)
BTK (human) = BTK (human) (UniProt Q06187)
CDK2 CCNA2 (human) = CDK2 CCNA2 (human) (UniProt P24941+P20248)
CHEK1 (human) = CHEK1 (human) (UniProt O14757)
CSK (human) = CSK (human) (UniProt P41240)
EGFR (human) = EGFR (human) (UniProt P00533)
EPHA2 (human) = EPHA2 (human) (UniProt P29317)
EPHA4 (human) = EPHA4 (human) (UniProt P54764)
FGFR1 (human) = FGFR1 (human) (UniProt P11362)
FGFR3 (human) = FGFR3 (human) (UniProt P22607)
FLT3 (human) = FLT3 (human) (UniProt P36888)
IGF1R (human) = IGF1R (human) (UniProt P08069)
IKBKB (human) = IKBKB (human) (UniProt O14920)
KDR (human) = KDR (human) (UniProt P35968)
KIT (human) = KIT (human) (UniProt P10721)
MAP3K7 (human) = MAP3K7 (human) (UniProt O43318)
MAPK11 (human) = MAPK11 (human) (UniProt Q15759)
MAPK12 (human) = MAPK12 (human) (UniProt P53778)
MAPK13 (human) = MAPK13 (human) (UniProt O15264)
MAPK14 (human) = MAPK14 (human) (UniProt Q16539)
MAPK8 (human) = MAPK8 (human) (UniProt P45983)
MAPKAPK2 (human) = MAPKAPK2 (human) (UniProt P49137)
MAPKAPK5 (human) = MAPKAPK5 (human) (UniProt Q8IW41)
NEK2 (human) = NEK2 (human) (UniProt P51955)
NEK6 (human) = NEK6 (human) (UniProt Q9HC98)
PAK4 (human) = PAK4 (human) (UniProt O96013)
PIM2 (human) = PIM2 (human) (UniProt Q9P1W9)
PLK3 (human) = PLK3 (human) (UniProt Q9H4B4)
PRKCA (human) = PRKCA (human) (UniProt P17252)
PRKCG (human) = PRKCG (human) (UniProt P05129)
PRKCI (human) = PRKCI (human) (UniProt P41743)
RAF1 (human) = RAF1 (human) (UniProt P04049)
RIPK2 (human) = RIPK2 (human) (UniProt O43353)
RPS6KA1 KD1 KD2 (human) = RPS6KA1 KD1 KD2 (human) (UniProt Q15418)
RPS6KA5 KD1 KD2 (human) = RPS6KA5 KD1 KD2 (human) (UniProt O75582)
RPS6KB1 (human) = RPS6KB1 (human) (UniProt P23443)
SRC (human) = SRC (human) (UniProt P12931)
TEK (human) = TEK (human) (UniProt Q02763)
ZAP70 (human) = ZAP70 (human) (UniProt P43403)

Sequence of RIPK2 (human) (O43353 whole entry, looked up): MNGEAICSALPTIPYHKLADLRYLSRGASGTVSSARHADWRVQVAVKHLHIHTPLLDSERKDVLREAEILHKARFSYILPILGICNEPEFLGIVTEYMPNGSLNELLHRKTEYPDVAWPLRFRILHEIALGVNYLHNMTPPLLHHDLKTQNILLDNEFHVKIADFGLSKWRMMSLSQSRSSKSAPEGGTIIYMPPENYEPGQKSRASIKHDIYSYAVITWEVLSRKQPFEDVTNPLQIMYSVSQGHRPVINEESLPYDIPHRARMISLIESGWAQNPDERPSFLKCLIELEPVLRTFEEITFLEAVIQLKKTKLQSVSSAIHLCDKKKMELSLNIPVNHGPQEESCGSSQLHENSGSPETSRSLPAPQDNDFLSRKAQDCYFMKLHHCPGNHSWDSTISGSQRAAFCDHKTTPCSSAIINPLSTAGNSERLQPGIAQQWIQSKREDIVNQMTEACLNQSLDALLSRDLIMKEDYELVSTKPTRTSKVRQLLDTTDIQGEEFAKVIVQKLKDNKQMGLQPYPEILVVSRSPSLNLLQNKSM
Sequence of RAF1 (human) (P04049 whole entry, looked up): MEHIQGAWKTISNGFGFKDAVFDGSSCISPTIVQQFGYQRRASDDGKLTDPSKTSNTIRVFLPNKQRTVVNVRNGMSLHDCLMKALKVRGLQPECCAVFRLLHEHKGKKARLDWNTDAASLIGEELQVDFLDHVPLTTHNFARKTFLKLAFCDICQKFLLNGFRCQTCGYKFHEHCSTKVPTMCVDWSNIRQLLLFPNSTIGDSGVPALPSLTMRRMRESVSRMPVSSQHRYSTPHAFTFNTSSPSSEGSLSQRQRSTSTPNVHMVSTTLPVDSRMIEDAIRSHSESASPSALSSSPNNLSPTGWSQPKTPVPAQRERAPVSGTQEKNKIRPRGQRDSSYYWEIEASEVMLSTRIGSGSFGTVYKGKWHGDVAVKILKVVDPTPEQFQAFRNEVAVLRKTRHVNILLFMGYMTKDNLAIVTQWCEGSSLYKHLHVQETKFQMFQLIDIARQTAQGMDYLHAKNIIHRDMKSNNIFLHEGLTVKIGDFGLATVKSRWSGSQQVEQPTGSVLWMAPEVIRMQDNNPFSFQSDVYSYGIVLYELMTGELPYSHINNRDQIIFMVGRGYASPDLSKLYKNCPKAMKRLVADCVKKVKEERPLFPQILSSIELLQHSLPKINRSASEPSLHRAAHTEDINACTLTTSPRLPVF
Sequence of TEK (human) (Q02763 whole entry, looked up): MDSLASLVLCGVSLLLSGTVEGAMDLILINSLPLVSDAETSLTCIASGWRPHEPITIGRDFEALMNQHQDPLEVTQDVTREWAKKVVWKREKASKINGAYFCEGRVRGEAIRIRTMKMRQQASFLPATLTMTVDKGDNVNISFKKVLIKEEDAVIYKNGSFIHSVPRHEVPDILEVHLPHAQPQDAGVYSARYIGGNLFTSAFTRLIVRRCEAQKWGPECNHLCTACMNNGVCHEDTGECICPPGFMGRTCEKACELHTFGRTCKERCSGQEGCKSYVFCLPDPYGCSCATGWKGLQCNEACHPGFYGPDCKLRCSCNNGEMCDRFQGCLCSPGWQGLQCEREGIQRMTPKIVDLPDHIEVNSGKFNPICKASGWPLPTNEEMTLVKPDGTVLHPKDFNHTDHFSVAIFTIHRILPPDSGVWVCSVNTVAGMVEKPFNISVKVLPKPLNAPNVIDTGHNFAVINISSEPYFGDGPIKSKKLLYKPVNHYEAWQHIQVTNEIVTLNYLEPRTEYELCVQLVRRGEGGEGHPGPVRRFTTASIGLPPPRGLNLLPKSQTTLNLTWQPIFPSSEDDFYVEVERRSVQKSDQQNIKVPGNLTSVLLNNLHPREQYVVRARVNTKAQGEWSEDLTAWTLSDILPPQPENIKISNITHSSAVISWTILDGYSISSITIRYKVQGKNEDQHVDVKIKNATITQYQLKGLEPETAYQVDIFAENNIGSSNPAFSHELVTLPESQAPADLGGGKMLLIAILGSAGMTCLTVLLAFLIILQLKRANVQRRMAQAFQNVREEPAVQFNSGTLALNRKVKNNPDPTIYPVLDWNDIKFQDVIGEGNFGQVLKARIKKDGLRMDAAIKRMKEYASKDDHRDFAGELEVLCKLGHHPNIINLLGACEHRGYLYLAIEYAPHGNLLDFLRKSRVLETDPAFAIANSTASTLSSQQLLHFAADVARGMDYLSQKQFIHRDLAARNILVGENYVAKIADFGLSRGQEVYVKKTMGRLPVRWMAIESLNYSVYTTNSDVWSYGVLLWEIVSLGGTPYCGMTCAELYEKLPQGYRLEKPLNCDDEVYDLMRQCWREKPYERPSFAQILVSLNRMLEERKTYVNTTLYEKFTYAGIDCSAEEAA
Sequence of RPS6KB1 (human) (P23443 whole entry, looked up): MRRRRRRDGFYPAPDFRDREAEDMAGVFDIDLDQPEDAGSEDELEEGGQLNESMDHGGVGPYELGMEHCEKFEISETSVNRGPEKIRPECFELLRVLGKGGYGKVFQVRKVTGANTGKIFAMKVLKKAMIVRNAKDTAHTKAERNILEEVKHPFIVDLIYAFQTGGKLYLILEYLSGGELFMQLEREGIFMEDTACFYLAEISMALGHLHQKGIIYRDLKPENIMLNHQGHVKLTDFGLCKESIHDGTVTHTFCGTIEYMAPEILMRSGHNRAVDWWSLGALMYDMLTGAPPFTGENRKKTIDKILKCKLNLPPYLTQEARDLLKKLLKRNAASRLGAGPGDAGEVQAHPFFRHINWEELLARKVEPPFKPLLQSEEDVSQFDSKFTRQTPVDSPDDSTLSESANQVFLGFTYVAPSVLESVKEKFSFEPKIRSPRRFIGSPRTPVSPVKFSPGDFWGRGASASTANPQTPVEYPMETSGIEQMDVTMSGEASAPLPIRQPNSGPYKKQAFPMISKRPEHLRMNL
Sequence of FGFR3 (human) (P22607 whole entry, looked up): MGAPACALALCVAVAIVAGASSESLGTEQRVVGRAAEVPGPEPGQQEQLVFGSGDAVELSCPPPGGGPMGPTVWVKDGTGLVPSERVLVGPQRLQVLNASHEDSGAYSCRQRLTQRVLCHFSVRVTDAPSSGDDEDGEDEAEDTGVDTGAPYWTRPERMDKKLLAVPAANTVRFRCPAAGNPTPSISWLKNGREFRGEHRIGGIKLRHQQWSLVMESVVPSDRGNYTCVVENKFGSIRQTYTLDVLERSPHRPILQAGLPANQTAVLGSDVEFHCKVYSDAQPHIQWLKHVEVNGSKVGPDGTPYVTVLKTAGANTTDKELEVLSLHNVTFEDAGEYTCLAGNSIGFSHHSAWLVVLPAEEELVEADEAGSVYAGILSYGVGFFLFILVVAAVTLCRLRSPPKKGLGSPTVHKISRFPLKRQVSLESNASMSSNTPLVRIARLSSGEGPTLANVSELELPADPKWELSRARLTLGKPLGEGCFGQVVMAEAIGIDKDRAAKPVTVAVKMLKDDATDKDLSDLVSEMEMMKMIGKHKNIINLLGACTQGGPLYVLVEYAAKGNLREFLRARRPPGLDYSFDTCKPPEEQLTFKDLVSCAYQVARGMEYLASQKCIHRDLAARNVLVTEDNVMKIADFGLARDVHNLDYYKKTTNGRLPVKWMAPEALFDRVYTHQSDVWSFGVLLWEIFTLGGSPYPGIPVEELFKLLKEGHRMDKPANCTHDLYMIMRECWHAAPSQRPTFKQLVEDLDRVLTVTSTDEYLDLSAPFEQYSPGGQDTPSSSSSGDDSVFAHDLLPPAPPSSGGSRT
Sequence of SRC (human) (P12931 whole entry, looked up): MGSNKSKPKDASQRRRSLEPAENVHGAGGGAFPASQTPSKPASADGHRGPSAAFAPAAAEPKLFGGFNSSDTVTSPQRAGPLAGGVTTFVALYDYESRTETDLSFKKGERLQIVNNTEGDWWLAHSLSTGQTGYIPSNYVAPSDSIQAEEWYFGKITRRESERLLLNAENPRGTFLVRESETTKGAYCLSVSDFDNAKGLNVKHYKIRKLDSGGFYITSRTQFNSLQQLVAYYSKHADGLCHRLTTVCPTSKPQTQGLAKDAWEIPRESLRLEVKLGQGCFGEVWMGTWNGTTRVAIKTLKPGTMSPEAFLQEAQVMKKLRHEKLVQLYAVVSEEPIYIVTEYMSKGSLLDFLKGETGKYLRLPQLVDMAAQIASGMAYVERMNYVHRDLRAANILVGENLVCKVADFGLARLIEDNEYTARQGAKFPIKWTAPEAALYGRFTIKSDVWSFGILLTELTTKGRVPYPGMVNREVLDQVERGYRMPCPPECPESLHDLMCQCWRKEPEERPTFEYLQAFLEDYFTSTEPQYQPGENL
Sequence of NEK6 (human) (Q9HC98 whole entry, looked up): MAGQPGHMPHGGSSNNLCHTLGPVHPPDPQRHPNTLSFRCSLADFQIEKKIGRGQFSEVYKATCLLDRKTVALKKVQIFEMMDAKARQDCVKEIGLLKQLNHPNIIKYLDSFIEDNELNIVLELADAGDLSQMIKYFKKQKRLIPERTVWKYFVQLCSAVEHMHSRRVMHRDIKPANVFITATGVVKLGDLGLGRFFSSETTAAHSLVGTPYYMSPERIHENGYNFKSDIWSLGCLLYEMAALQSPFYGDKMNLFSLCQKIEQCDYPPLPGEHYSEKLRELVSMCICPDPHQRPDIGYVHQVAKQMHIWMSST
Sequence of CDK2 CCNA2 (human) (P20248 whole entry, looked up, other chains not shown): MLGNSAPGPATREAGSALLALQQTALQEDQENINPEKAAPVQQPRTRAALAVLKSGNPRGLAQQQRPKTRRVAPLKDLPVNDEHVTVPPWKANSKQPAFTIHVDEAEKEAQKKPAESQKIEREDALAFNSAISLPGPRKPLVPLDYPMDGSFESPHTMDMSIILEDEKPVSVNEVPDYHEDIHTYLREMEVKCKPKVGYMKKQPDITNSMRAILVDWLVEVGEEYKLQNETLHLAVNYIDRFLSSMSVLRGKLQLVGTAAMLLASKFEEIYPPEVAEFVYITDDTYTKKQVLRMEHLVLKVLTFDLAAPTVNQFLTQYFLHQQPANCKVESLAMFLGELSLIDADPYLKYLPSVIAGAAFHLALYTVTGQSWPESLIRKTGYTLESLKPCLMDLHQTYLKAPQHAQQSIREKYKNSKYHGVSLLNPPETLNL

O=C(N[C@@H](COc1ccc2[nH]c(=O)[nH]c2c1)c1ccccc1)c1cccn(Cc2ccc(F)c(F)c2)c1=O
residual activity (AKT1 (human); compound 10.0 µM): 107% | residual activity (ALK (human); compound 10.0 µM): 116% | residual activity (BRSK2 (human); compound 10.0 µM): 111% | residual activity (BTK (human); compound 10.0 µM): 107% | residual activity (CDK2 CCNA2 (human); compound 10.0 µM): 99% | residual activity (CHEK1 (human); compound 10.0 µM): 105% | residual activity (CSK (human); compound 10.0 µM): 114% | residual activity (EGFR (human); compound 10.0 µM): 89% | residual activity (EPHA2 (human); compound 10.0 µM): 127% | residual activity (EPHA4 (human); compound 10.0 µM): 101% | residual activity (FGFR1 (human); compound 10.0 µM): 86% | residual activity (FGFR3 (human); compound 10.0 µM): 122% | residual activity (FLT3 (human); compound 10.0 µM): 103% | residual activity (IGF1R (human); compound 10.0 µM): 116% | residual activity (IKBKB (human); compound 10.0 µM): 100% | residual activity (KDR (human); compound 10.0 µM): 101% | residual activity (KIT (human); compound 10.0 µM): 107% | residual activity (MAP3K7 (human); compound 10.0 µM): 101% | residual activity (MAPK11 (human); compound 10.0 µM): 100% | residual activity (MAPK12 (human); compound 10.0 µM): 115% | residual activity (MAPK13 (human); compound 10.0 µM): 114% | residual activity (MAPK14 (human); compound 10.0 µM): 107% | residual activity (MAPK8 (human); compound 10.0 µM): 125% | residual activity (MAPKAPK2 (human); compound 10.0 µM): 98% | residual activity (MAPKAPK5 (human); compound 10.0 µM): 98% | residual activity (NEK2 (human); compound 10.0 µM): 94% | residual activity (NEK6 (human); compound 10.0 µM): 99% | residual activity (PAK4 (human); compound 10.0 µM): 105% | residual activity (PIM2 (human); compound 10.0 µM): 100% | residual activity (PLK3 (human); compound 10.0 µM): 96% | residual activity (PRKCA (human); compound 10.0 µM): 98% | residual activity (PRKCG (human); compound 10.0 µM): 104% | residual activity (PRKCI (human); compound 10.0 µM): 97% | residual activity (RAF1 (human); compound 10.0 µM): 109% | residual activity (RIPK2 (human); compound 10.0 µM): 101% | residual activity (RPS6KA1 KD1 KD2 (human); compound 10.0 µM): 107% | residual activity (RPS6KA5 KD1 KD2 (human); compound 10.0 µM): 109% | residual activity (RPS6KB1 (human); compound 10.0 µM): 104% | residual activity (SRC (human); compound 10.0 µM): 94% and 101% | residual activity (TEK (human); compound 10.0 µM): 105% | residual activity (ZAP70 (human); compound 10.0 µM): 100%

C[C@@H](Nc1nc2c(C#CC3CC3)c[nH]c(=O)c2c2cc(-c3cn[nH]c3)ccc12)C(C)(C)C
residual activity (AKT1 (human); compound 1.0 µM): 98% | residual activity (ALK (human); compound 1.0 µM): 77% | residual activity (BRSK2 (human); compound 1.0 µM): 15% | residual activity (BTK (human); compound 1.0 µM): 79% | residual activity (CDK2 CCNA2 (human); compound 1.0 µM): 104% | residual activity (CHEK1 (human); compound 1.0 µM): 46% | residual activity (CSK (human); compound 1.0 µM): 75% | residual activity (EGFR (human); compound 1.0 µM): 116% | residual activity (EPHA2 (human); compound 1.0 µM): 131% | residual activity (EPHA4 (human); compound 1.0 µM): 103% | residual activity (FGFR1 (human); compound 1.0 µM): 29% | residual activity (FGFR3 (human); compound 1.0 µM): 60% | residual activity (FLT3 (human); compound 1.0 µM): 43% | residual activity (IGF1R (human); compound 1.0 µM): 85% | residual activity (IKBKB (human); compound 1.0 µM): 92% | residual activity (KDR (human); compound 1.0 µM): 42% | residual activity (KIT (human); compound 1.0 µM): 109% | residual activity (MAP3K7 (human); compound 1.0 µM): 90% | residual activity (MAPK11 (human); compound 1.0 µM): 110% | residual activity (MAPK12 (human); compound 1.0 µM): 106% | residual activity (MAPK13 (human); compound 1.0 µM): 108% | residual activity (MAPK14 (human); compound 1.0 µM): 107% | residual activity (MAPK8 (human); compound 1.0 µM): 87% | residual activity (MAPKAPK2 (human); compound 1.0 µM): 115% | residual activity (MAPKAPK5 (human); compound 1.0 µM): 75% | residual activity (NEK2 (human); compound 1.0 µM): 116% | residual activity (NEK6 (human); compound 1.0 µM): 110% | residual activity (PAK4 (human); compound 1.0 µM): 95% | residual activity (PIM2 (human); compound 1.0 µM): 99% | residual activity (PLK3 (human); compound 1.0 µM): 85% | residual activity (PRKCA (human); compound 1.0 µM): 108% | residual activity (PRKCG (human); compound 1.0 µM): 95% | residual activity (PRKCI (human); compound 1.0 µM): 98% | residual activity (RAF1 (human); compound 1.0 µM): 107% | residual activity (RIPK2 (human); compound 1.0 µM): 51% | residual activity (RPS6KA1 KD1 KD2 (human); compound 1.0 µM): 20% | residual activity (RPS6KA5 KD1 KD2 (human); compound 1.0 µM): 83% | residual activity (RPS6KB1 (human); compound 1.0 µM): 45% | residual activity (SRC (human); compound 1.0 µM): 83% and 87% | residual activity (TEK (human); compound 1.0 µM): 109% | residual activity (ZAP70 (human); compound 1.0 µM): 104%

O=C(NCCCNc1nc(Nc2cccc(NC(=O)N3CCCC3)c2)ncc1I)c1cccs1
residual activity (AKT1 (human); compound 1.0 µM): 103% | residual activity (ALK (human); compound 1.0 µM): 100% | residual activity (BRSK2 (human); compound 1.0 µM): 81% | residual activity (BTK (human); compound 1.0 µM): 94% | residual activity (CDK2 CCNA2 (human); compound 1.0 µM): 99% | residual activity (CHEK1 (human); compound 1.0 µM): 54% | residual activity (CSK (human); compound 1.0 µM): 107% | residual activity (EGFR (human); compound 1.0 µM): 109% | residual activity (EPHA2 (human); compound 1.0 µM): 127% | residual activity (EPHA4 (human); compound 1.0 µM): 100% | residual activity (FGFR1 (human); compound 1.0 µM): 48% | residual activity (FGFR3 (human); compound 1.0 µM): 88% | residual activity (FLT3 (human); compound 1.0 µM): 9% | residual activity (IGF1R (human); compound 1.0 µM): 103% | residual activity (IKBKB (human); compound 1.0 µM): 105% | residual activity (KDR (human); compound 1.0 µM): 106% | residual activity (KIT (human); compound 1.0 µM): 100% | residual activity (MAP3K7 (human); compound 1.0 µM): 32% | residual activity (MAPK11 (human); compound 1.0 µM): 85% | residual activity (MAPK12 (human); compound 1.0 µM): 98% | residual activity (MAPK13 (human); compound 1.0 µM): 115% | residual activity (MAPK14 (human); compound 1.0 µM): 108% | residual activity (MAPK8 (human); compound 1.0 µM): 94% | residual activity (MAPKAPK2 (human); compound 1.0 µM): 96% | residual activity (MAPKAPK5 (human); compound 1.0 µM): 78% | residual activity (NEK2 (human); compound 1.0 µM): 93% | residual activity (NEK6 (human); compound 1.0 µM): 114% | residual activity (PAK4 (human); compound 1.0 µM): 99% | residual activity (PIM2 (human); compound 1.0 µM): 91% | residual activity (PLK3 (human); compound 1.0 µM): 111% | residual activity (PRKCA (human); compound 1.0 µM): 98% | residual activity (PRKCG (human); compound 1.0 µM): 86% | residual activity (PRKCI (human); compound 1.0 µM): 121% | residual activity (RAF1 (human); compound 1.0 µM): 94% | residual activity (RIPK2 (human); compound 1.0 µM): 111% | residual activity (RPS6KA1 KD1 KD2 (human); compound 1.0 µM): 83% | residual activity (RPS6KA5 KD1 KD2 (human); compound 1.0 µM): 93% | residual activity (RPS6KB1 (human); compound 1.0 µM): 85% | residual activity (SRC (human); compound 1.0 µM): 86% | residual activity (TEK (human); compound 1.0 µM): 95% | residual activity (ZAP70 (human); compound 1.0 µM): 120%
